Reference: ChEMBL document CHEMBL5352416, “Benzo[b]thiophene-2-carboxamides as novel opioid receptor agonists with potent analgesic effect and reduced constipation” (Eur J Med Chem, 2022)
Active and inactive are the calls of the source. The calls are words filed in the database; no cut-off is given here.

Assays:
Mu-type opioid receptor [1] = target: T1, Mu-type opioid receptor (Homo sapiens, UniProt P35372); test: Agonist activity at human mu opioid receptor expressed in CHO-K1 cells coexpressing Galpha15 assessed as increase in fluorescence of [ca2+]i measured for 1.52 sec by FLIPR calcium assay; type: functional, cell-based
T1 sequence (P35372 whole entry): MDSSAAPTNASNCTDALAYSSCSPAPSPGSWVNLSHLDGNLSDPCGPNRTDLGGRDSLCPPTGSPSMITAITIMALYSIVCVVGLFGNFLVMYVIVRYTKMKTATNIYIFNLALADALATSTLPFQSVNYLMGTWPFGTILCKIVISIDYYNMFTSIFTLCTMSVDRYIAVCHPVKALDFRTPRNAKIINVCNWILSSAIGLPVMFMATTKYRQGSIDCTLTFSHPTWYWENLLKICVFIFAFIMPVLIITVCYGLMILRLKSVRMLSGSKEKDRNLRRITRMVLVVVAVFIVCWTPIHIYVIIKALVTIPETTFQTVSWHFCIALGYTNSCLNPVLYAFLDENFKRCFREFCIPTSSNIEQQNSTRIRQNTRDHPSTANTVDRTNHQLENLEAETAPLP

Mu-type opioid receptor [2] = target: T1, Mu-type opioid receptor; test: Agonist activity at human mu opioid receptor expressed in CHO-K1 cells coexpressing Galpha15 assessed as increase in fluorescence of [ca2+]i by measuring maximum efficacy measured for 1.52 sec by FLIPR calcium assay relative to control; type: functional, cell-based; conditions: filed as agonist
Mus musculus [3] = test: Antinociceptive activity in thermal stimulated C57BL/6 mouse at 4.4 mg/kg, sc measured at 30 to 180 mins by tail flick test; type: functional, organism-based; conditions: time 30-180 min
Mus musculus [4] = test: Antinociceptive activity in thermal stimulated C57BL/6 mouse assessed as tail flick latency at 4.4 mg/kg, sc measured at 30 to 60 mins by tail flick test; type: functional, organism-based; conditions: time 30-60 min
Mus musculus [5] = test: Antinociceptive activity in CFA-induced mechanical allodynia C57BL/6 mouse model at 4.4 mg/kg, sc administered twice daily pretreated with CFA for 2 days followed by compound addition and measured at 3 to 7 days by von frey test; type: functional, organism-based; conditions: time 3-7 day
Mus musculus [6] = test: Antinociceptive activity in thermal stimulated C57BL/6 mouse assessed as drug tolerance at 126.4 to 252.8 microg/kg, sc administered twice per day for 5 days and measured immediately by tail flick test; type: functional, organism-based; conditions: dose 126.4-252.8 µg/kg, time 5.0 day
Mus musculus [7] = test: Induction of motivational effect in C57BL/6 mouse assessed as increase in reward behaviour at 2.5 mg/kg, sc administered for 4 days and measured on day 6 by CPP analysis; type: functional, organism-based; conditions: time 6.0 day

SMILES	EC50 (Mu-type opioid receptor [1])	Emax (Mu-type opioid receptor [2])	other results
Cc1ccc2cc(C(=O)NCC(c3ccccc3Cl)N(C)C)sc2c1 (stereo not given)	1.89 µM	58.4%	–
CN1CCc2ccccc2C1CNC(=O)c1ccc(Cl)c(Cl)c1 (stereo not given)	0.000276 µM	100%	–
CN(C)C(CNC(=O)c1cc2ccccc2s1)c1ccccc1Cl (stereo not given)	0.00304 µM	66.7%	–
CN(C)C(CNC(=O)c1sccc1Cl)c1ccccc1Cl (stereo not given)	1.06 µM	50.7%	–
Cc1ccccc1C(CNC(=O)c1cc2ccccc2s1)N(C)C (stereo not given)	6.48 µM	90.8%	–
CN(C)C(CNC(=O)c1cc2ccccc2s1)c1ccccc1F (stereo not given)	1.24 µM	105%	–
Cc1ccc2c(Cl)c(C(=O)NCC(c3ccccc3Cl)N(C)C)sc2c1 (stereo not given)	2.58 µM	55%	–
CN(C)C(CNC(=O)c1cc2ccccc2s1)c1cccs1 (stereo not given)	0.0136 µM	131%	–
CN1CC[C@]23c4c5ccc(O)c4O[C@H]2[C@@H](O)C=C[C@H]3[C@H]1C5	–	–	Activity (Mus musculus [3]): Active; Activity (Mus musculus [4]): Active; Activity (Mus musculus [5]): inactive; Activity (Mus musculus [6]): Active; Activity (Mus musculus [7]): Active
CN(C)C(CNC(=O)c1cc2ccccc2s1)c1cccc(Cl)c1 (stereo not given)	2.31 µM	130%	–
Cc1ccc2c(Cl)c(C(=O)NCC(c3ccccc3)N(C)C)sc2c1 (stereo not given)	1.62 µM	73.6%	–
